Results published in US20240245085A1, “FLAVORING COMPOSITIONS FOR TASTE IMPROVEMENT” (SYMRISE AG, priority 2021, published 2024).
Entries after “also recorded” stand apart in the source; their conditions may differ.

Experiments:
Type in all cases: in vivo
vegan patty = experiment: Blind tasting of vegan patties by a panel (sensory profile)
Protocol: A vegan patty has been produced containing the following ingredients: water, leguminose protein isolate, sun flower oil, leguminose protein concentrate, coconut oil, methylcellulose, fiber, salt, starch, lactic acid and sodium diacetate. Water, thickener and starch are mixed with water, pH is adjusted, proteins are added next followed by fibre and oil ingredients. Finally, a taste masking ingredient according to Table 4 is added. The ingredients are thoroughly mixed and the dough is formed to patties. The patties where baked in an oven at 200° C. After cooling the patties, patties were sliced and samples were coded for a blind tasting with a panel.

quinine (10 mg/kg) = experiment: Bitter-duo test (paired comparison, trained panel, nose-clips) with quinine
Protocol: (§1) A trained panel was given different samples with the bitter tasting substances caffeine (500 mg/kg), quinine (10 mg/kg) and naringin (100 mg/kg). Caffeine is the bitter principle of coffee and coffee-type beverages, quinine is used as food additive to flavor tonics or energy drinks and naringin is the bitter principle of grapefruit juice. Each test includes a different amount of bitter-masking substances or mixtures thereof. During the tests, the panellists wear nose-clips to exclude any olfactory impressions. These tests are referred to as bitter-duo tests.
In a first trial, above mentioned bitter samples were mixed with 10 mg/kg eriodictyol-7-O-glucoside at a purity of >95%.
In a second test, the bitter agents were mixed with 50 mg/kg eriocitrin at a purity of >95% and the bitter-masking effect evaluated by the panel.
Another trial was set-up using samples with 10 mg/kg quinine and 50 mg/kg eriodictyol (ED) alone or with an inventive flavoring composition containing eriodictyol-7-O-glucoside (EDMG) and neoeriocitrin (NEC) eriocitrin (EC). […] The same effect was observed when using neoeriocitrin instead of eriocitrin. The wt.-% are based on the dry weight of the flavoring composition.
Other solvents than methanol, mixtures of solvents and different CV ratios can be used in order to achieve the same purification than with methanol as described herein. The column volume ration (CV) is the ratio of column bed volume and volume of solution flowing through column. The product was evaluated by a sensory panel (n=20).

caffeine (500 mg/kg) [1] = experiment: Pairwise bitter intensity rating (scale 1-100) in water with 500 mg/kg caffeine; settings: for bitter masking of caffeine solution (in words): 50 mg/kg, 500 mg/kg caffeine; for Bitter intensity [0-100] of base: taste modulator 50 mg/kg in water with 500 mg/kg caffeine
Protocol: The said mixture can be compared with further taste modulating compounds to impart taste modulating sensory effects. […] A masking mixture comprising three parts hesperetin, two parts naringenin and two parts of the inventive citrus hydrolysate (55 wt.-% ED, 11.1 wt.-% EDMG, 1.5 wt.-% EC) was tested with 50 mg/kg dosage against naringenin, hesperetin and homoeriodictyol (No. 1-3, Table 5). The compounds and the mixture were all solved in water with added 500 mg/kg caffeine as bitter agent. The panelists were asked to rate the bitter intensity of each sample of one sample pair on a scale of 1-100. […] Said mixtures can be obtained by mixing the inventive citrus hydrolysate with hydrolysates from orange (yielding hesperetin), grapefruit or bergamot (yielding naringenin) or bitter orange and lime among other citrus fruits.

naringin (100 mg/kg) = experiment: Bitter-duo test (paired comparison, trained panel, nose-clips) with naringin
Protocol: as §1, with “tests. In a first trial, above mentioned bitter samples were mixed with 10 mg/kg eriodictyol-7-O-glucoside at a purity of >95%. […] In a second test, the bitter agents were mixed with 50 mg/kg eriocitrin at a purity of >95% and the bitter-masking effect evaluated by the panel.” for “tests.”

caffeine (500 mg/kg) [2] = experiment: Bitter-duo test (paired comparison, trained panel, nose-clips) with caffeine
Protocol: as §1, with “tests. In a first trial, above mentioned bitter samples were mixed with 10 mg/kg eriodictyol-7-O-glucoside at a purity of >95%. […] In a second test, the bitter agents were mixed with 50 mg/kg eriocitrin at a purity of >95% and the bitter-masking effect evaluated by the panel.” for “tests.”

[3] = Own taste of eriodictyol-7-O-glucoside at higher concentration; settings: concentration above 50 mg/kg
[4] = Table 2, dosage 10 mg/kg in table (text: 50 mg/kg), 20 panelists
[5] = Table 1, dosage 10 mg/kg, 20 panellists

Q: Which “taste improving and bitter masking property (in words)” value (vegan patty) does the source give for `O=C1C[C@@H](c2ccc(O)c(O)c2)Oc2cc(O)cc(O)c21` [ED, Eriodictyol] here?
A: improved the taste profile

Q: And the “Bitter masking activity (%)” value (quinine (10 mg/kg); Table 3, dosage 50 mg/kg, 10 mg/kg quinine, 18-20 panellists)?
A: −31.0%

Q: With `COc1ccc([C@@H]2CC(=O)c3c(O)cc(O)cc3O2)cc1O` [Hesperetin] as the compound, how does the “bitter masking of caffeine solution (in words)” value (caffeine (500 mg/kg) [1]) read?
A: not potent bitter masking compounds

Q: And the “Bitter intensity [0-100] of base” value (caffeine (500 mg/kg) [1])?
A: 39

Q: Which results are given for `COc1cc([C@@H]2CC(=O)c3c(O)cc(O)cc3O2)ccc1O` [Homoeriodictyol]?
A: Bitter intensity [0-100] of base (caffeine (500 mg/kg) [1]): 37.5; taste improving and bitter masking property (in words) (vegan patty): improved the taste profile; also recorded: reduced the bitterness more than eriodictyol

Q: With `O=C1C[C@@H](c2ccc(O)cc2)Oc2cc(O)cc(O)c21` [Naringenin] as the compound, how does the “bitter masking of caffeine solution (in words)” value (caffeine (500 mg/kg) [1]) read?
A: not potent bitter masking compounds

Q: What about the “Bitter intensity [0-100] of base” value (caffeine (500 mg/kg) [1]) of the same compound?
A: 36.4

Q: Which “bitter masking effect (in words)” value (naringin (100 mg/kg); 50 mg/kg, purity >95%) does the source give for `C[C@@H]1O[C@@H](OC[C@H]2O[C@@H](Oc3cc(O)c4c(c3)O[C@H](c3ccc(O)c(O)c3)CC4=O)[C@H](O)[C@@H](O)[C@@H]2O)[C@H](O)[C@H](O)[C@H]1O` [eriocitrin, Eriocitrin] here?
A: not significant

Q: And the “Bitter masking activity (%)” value (naringin (100 mg/kg); [4])?
A: 0.8%

Q: And the “bitter masking effect (in words)” value (caffeine (500 mg/kg) [2]; 50 mg/kg, purity >95%)?
A: not significant

Q: What about the “Bitter masking activity (%)” value (caffeine (500 mg/kg) [2]; [4]) of the same compound?
A: 5.6%

Q: And the “bitter masking effect (in words)” value (quinine (10 mg/kg); 50 mg/kg, purity >95%, quinine 10 mg/kg)?
A: not significant

Q: And the “Bitter masking activity (%)” value (quinine (10 mg/kg); Table 2, dosage 10 mg/kg in table (text: 50 mg/kg), quinine 10 mg/kg, 20 panelists)?
A: −1.6%

Q: Which results are given for `O=C1C[C@@H](c2ccc(O)c(O)c2)Oc2cc(O[C@@H]3O[C@H](CO)[C@@H](O)[C@H](O)[C@H]3O)cc(O)c21` [eriodictyol-7-O-glucoside]?
A: bitter-reducing effect (in words) (naringin (100 mg/kg); 10 mg/kg, purity >95%): not significant; Bitter masking activity (%) (naringin (100 mg/kg); [5]): −2.59%; bitter-reducing effect (in words) (caffeine (500 mg/kg) [2]; 10 mg/kg, purity >95%): not significant; Bitter masking activity (%) (caffeine (500 mg/kg) [2]; [5]): −1.94%; own taste notes [3]: bitter notes; bitter-reducing effect (in words) (quinine (10 mg/kg); 10 mg/kg, purity >95%, quinine 10 mg/kg): not significant; Bitter masking activity (%) (quinine (10 mg/kg); Table 1, dosage 10 mg/kg, quinine 10 mg/kg, 20 panellists): −7.42%
